A word on the GI50: it is the concentration that inhibits growth by half. What is called TGI is the concentration at which net growth stops. A high value points to less potent growth arrest.

SMILES strings stand for the structures.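 Values below derive from 48-hour exposures of cells grown in 96-well plates, with endpoints linearly interpolated between the two concentrations bracketing the appropriate inhibition level. The concentration for 50% growth inhibition is given as GI50. At the TGI there is no net growth.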

Common to all, as to assay: DTP human tumour cell line panel, 48 h
In assay [1] the test system is HCT-116 colon.
For assay [2], the system named is TK-10 renal.
In assay [3] the test system is HOP-92 NSCLC.
Assay [4] deals with HT29 colon.
The subject of assay [5] is MALME-3M melanoma.
The test system of assay [6] is UACC-257 melanoma.
The test system of assay [7] is UO-31 renal.
Assay [8] concerns CAKI-1 renal.
Assay [9] has as its system CCRF-CEM leukemia.
The test system of assay [10] is OVCAR-4 ovarian.

Regarding `Fc1cc(Nc2ccc3c(OCCCN4CCOCC4)cccc3n2)ccc1Cl`, the GI50 in [1] was 2.76 µM; in assay [2] it was 2.01 µM; in [3], 2.4 µM; in [4], 1.53 µM; in [5], 1.91 µM; in assay [6], 2.18 µM. Also, the GI50 was 1.65 µM in assay [7], 1.89 µM in assay [8], 2.48 µM in assay [9] and 3.75 µM in [10]. Also, the TGI came to 7.16 µM in [1]; 4.1 µM in assay [2]; 6.26 µM in assay [3]; 3 µM in assay [4]; 4.36 µM in assay [5]; 4.25 µM in [6]. Moreover, the TGI turned out to be 4.11 µM in assay [7], 5.1 µM in [8], 8.66 µM in assay [9] and 88.5 µM in assay [10].

As for `Fc1ccc(-c2c(-c3ccncc3)n(CCN3CCOCC3)c3cccnc23)cc1`, the GI50 in assay [1] was more than 25 µM; in assay [2], more than 25 µM; in [3] it was 2.2 µM; in [4] it was more than 25 µM; in assay [5], more than 25 µM; in assay [6], more than 25 µM. For the same compound, the GI50 in assay [7] was more than 5.79 µM; in [8], more than 25 µM; in [9] it was more than 25 µM; in [10], more than 25 µM. The TGI in [1], in assay [2], in assay [3], in assay [4], in [5] and in assay [6] was more than 25 µM each time. The TGI in assay [7], in assay [8], in assay [9] and in assay [10] was more than 25 µM in each case.

Take `Cc1ccc(NC(=O)CCC(=O)C(C#N)c2ccc(Cl)cc2)cc1C` (centres undefined): the total growth inhibition concentration (TGI) in assay [1], in assay [2], in assay [3], in assay [4], in [5] and in assay [6] was more than 100 µM in each case. In addition, the TGI in assay [7], in [8], in [9] and in assay [10] was more than 100 µM in each case.

For the compound `O=C(N/N=C\c1cc(Cl)ccc1O)N/N=C/c1cc(Cl)ccc1O`, the GI50 in [1] is 0.565 µM; in assay [2] it was more than 100 µM; in assay [3], 0.99 µM; in assay [4], 9.57 µM; in [5], 34.3 µM; in assay [6] it was 6.6 µM. Moreover, the GI50 in [7] was 0.489 µM; in [8] it was 3.36 µM; in assay [9], 2.51 µM; in [10] it was 0.871 µM. Further, the TGI is more than 100 µM in assay [1]; more than 100 µM in assay [2]; 9.48 µM in assay [3]; more than 100 µM in assay [4]; more than 100 µM in assay [5]; more than 100 µM in assay [6]. In addition, the TGI in [7], in assay [8], in assay [9] and in [10] was more than 100 µM each time.

In the case of `CN1C=CN(Cc2ccc(-c3ccccn3)nc2)[CH-]1.CN1C=CN(Cc2ccc(-c3ccccn3)nc2)[CH-]1.[Au+3]`, the GI50 in assay [1] was 2.4 µM; in assay [2] it was 5.09 µM; in assay [3], 3.2 µM; in assay [4] it was 1.96 µM; in assay [5], 2.21 µM; in assay [6], 1.52 µM. For the same compound, the GI50 in assay [7] was 22 µM; in assay [8], 18.4 µM; in assay [9], 0.0834 µM; in assay [10], 0.769 µM. In addition, the TGI is 10.9 µM in assay [1]; 27 µM in assay [2]; 10.2 µM in [3]; more than 100 µM in assay [4]; 10.5 µM in [5]; 7.47 µM in [6]. The TGI in assay [7] was more than 73.6 µM; in [8], more than 100 µM; in [9] it was 13.4 µM; in assay [10], 14.1 µM.

On to `Cc1ccc(C)c(NC(=O)CCc2n[nH]c(=S)o2)c1`, for which the TGI in assay [1], in assay [2], in assay [3], in [4], in assay [5] and in assay [6] was more than 100 µM in each case. Moreover, the TGI in assay [7], in assay [8], in [9] and in [10] was more than 100 µM in each case.

Consider `COc1cc(SC)ccc1C(=O)N1CCCC(C)C1` (centres undefined), for which the GI50 in assay [1] is more than 100 µM; in [2], more than 100 µM; in assay [3] it was 95.7 µM; in assay [4], more than 100 µM; in assay [5], more than 100 µM; in [6], 78.9 µM. Moreover, the GI50 in assay [7] was more than 100 µM; in assay [8], more than 100 µM; in [9], more than 100 µM; in assay [10], 58.6 µM. In addition, the TGI in assay [1], in assay [2], in [3], in assay [4], in assay [5] and in [6] was more than 100 µM throughout. For the same compound, the TGI in assay [7], in assay [8], in [9] and in assay [10] was more than 100 µM throughout.

For the compound `Cc1[nH]nc(C(=O)N/N=C/c2cccs2)c1N=NN(C)C`, the TGI in [1] was more than 100 µM; in assay [2], 73.5 µM; in [3], 55.1 µM; in [4], 17.4 µM; in assay [5] it was 56.7 µM; in assay [6], 72.4 µM. For the same compound, the TGI in assay [7] is 21.9 µM; in [8], 25.9 µM; in assay [9] it was more than 100 µM; in assay [10] it was 31 µM.

For the compound `C/C(=N\n1c(N)c(C#N)c(-c2ccc(Cl)cc2)c(C#N)c1=O)c1cccnc1`, the GI50 in [1], in [2], in assay [4], in assay [5], in assay [6] and in [7] was more than 100 µM throughout. Besides, the GI50 in assay [8], in assay [9] and in assay [10] was more than 100 µM in each case. In addition, the TGI in assay [1] was more than 100 µM; in assay [2] it was more than 100 µM; in assay [3], 34.8 µM; in assay [4], more than 100 µM; in [5], more than 100 µM; in assay [6], more than 100 µM. Moreover, the TGI in assay [7], in assay [8], in [9] and in [10] was more than 100 µM each time.

Source of the values: PubChem BioAssay (NCI).
